Experimental findings from ChEMBL document CHEMBL1152405, “Bis-anthracenyl isoxazolyl amides have enhanced anticancer activity” (Bioorg Med Chem Lett, 2009) are described below.

By IC50 is commonly meant the point on the concentration scale where inhibition reaches its midpoint. Higher therefore signals weaker potency in that assay.

Common to all, as to format: functional, cell-based
The subject of assay [1] is SNB-19. Nature of the assay: Antitumor activity against human SNB19 cells after 24 hrs. The settings on record: SNB-19, 24 h.
The test system of assay [2] is SNB-19. Nature of the assay: Antitumor activity against human SNB19 cells after 2 hrs. The conditions noted are these: SNB-19, 2 h.
The test system of assay [3] is SNB-19. Put plainly: Antitumor activity against human SNB19 cells after 48 hrs. The settings on record: SNB-19, 48 h.

Consider `Cc1onc(-c2c3ccccc3c(Cl)c3ccccc23)c1C(=O)NCCCN(C)CCCNC(=O)c1c(-c2c3ccccc3c(Cl)c3ccccc23)noc1C`, for which the 50% inhibitory concentration (IC50) in assay [1] turned out to be 23.9 µM; in assay [2], 114 µM; in assay [3], 30.1 µM.
